# Experimental data reported in patent US7135590B2, “Gallic acid derivative and process of preparing the same” (Council of Scientific and Industrial Research, priority 2003, dated 2006).
# Columns and labels:
# Mentha arvensis = assay: Growth promoting activity with Mentha arvensis internode explants; assay type: in vivo
# Experimental: To confirm the growth promoting activity of methanone-(3′,4′,5′-trimethoxy) phenyl, 1-naphthyl, 2-O-4″-ethyl but-2″-enoate, it was tested with a medicinal and aromatic plant species Mentha arvensis. The explants used were 0.5 cm long pieces of the second and third internodes of the shoots formed from axillary buds and culture. The internode segments were inoculated in MS basal media (Murashige and Skoog, 1962, Physiol. Planta. 15: pp. 473 to 497) containing vitamins 100 μg/ml, myo-inositol 3%, w/v, sucrose 1.5% w/v, Agar and different concentrations of auxins and cytokinin. Different concentrations of 1-naphthalene acetic acid (NM) (0.0, 0.2, 2.0 μg/ml) were used in combination with different concentrations of 6 benzyl amino purine (BAP) (0, 10 & 5 μg/ml). On each kind of media […] of the explants were inoculated into three petriplates with each plates containing 4 explants. Compound 1 was serially replaced with each concentration of NM and BAP individually to observe its growth promoting activity. The experiment was arranged in the form of a completely randomized design (CRD).
# Cultures were maintained at 25±2° C. and 400 to 600 lux light intensity with 16 h photoperiod. The response of explants was recorded every 24 h over 4 week periods. […] The proportional increase in biomass was recorded by taking the fresh weight of the growing tissue during sub culturing and dividing the increase with the initial weight.
# At the end of 12 weeks from inoculation the shoots were separated and individually transferred to MS basal media containing vitamins for rooting. The rooted plantlets were subsequently transferred to pods in a green house.
# The basal medium for studying the response was MS 0 (Murashige and Skoog, 1962, Physiol. Planta. 15: pp. 473 to 497) supplemented with 0.2 mg/L IAA (indole acetic acid) and 5 mg/L BAP (benzene amino purine).
# The basal medium for studying the response was MS 0 (Murashige and Skoog, 1962, Physiol. Planta. 15: pp. 473 to 497) supplemented with 2mg/L IAA (indole acetic acid) and 10 mg/L BAP (benzene amino purine).
# Bacopa monnieri = assay: Growth promoting activity using Bacopa sensor system; assay type: in vivo
# Experimental: For testing the growth promoting effect of methanone-(3′,4′,5′-trimethoxy) phenyl, 1-naphthyl, 2-O-4″-ethyl but-2″-enoate, the compounds was dissolved in DMSO and added into the medium at 1.0 μg/ml. Only solvent was used as a control in the experiment for comparison. A fast propagating strain of Bacopa monnieri developed as a biosensor system through tissue culture at CIMAP (Khanuja et al., 2001, J Environa Pathol, Toxicol and Onco (JEPTO), 20:pp. 15 to 22) was used in the tests. The MS basal medium (Murashige and Skoog, 1962, Physiol. Planta. 15: pp. 473 to 497) supplemented with test compounds was used in the assays. Measured 0.5 to 1.0 ml medium was poured into 1.5 ml graduated microcentrifuge tubes. Twig cuttings of 2.5 cm were inoculated in 10 replicates for each treatment. These inoculated tubes were put into a half transparent desiccator allowing air passage through sterile cotton plugs fixed on opening vent. The tubes were placed such that the medium-containing portion of the tubes where roots would be initiating is inserted in to the holes of the stand made from a thermocol sheet. These desiccators were incubated at normal ambient temperature of 25 to 28° C. with 14 hours light and 10 hours dark cycle. The root initiation, shoot elongation, callus induction, shoot proliferation and wilting was recorded from day 2 to 14 every 24 hours.
smiles,measurement,setting,value
"CCOC(=O)C=CCOc1ccc2ccccc2c1C(=O)c1cc(OC)c(OC)c(OC)c1 [Compound 1, methanone-(3′,4′,5′-trimethoxy) phenyl, 1-naphthyl 2-O-4″-ethyl but-2″-enoate]",Number of shoots observed after three weeks,"Mentha arvensis; Medium A2 with IAA replaced: BAP 5.0, Compound 1 0.2, no roots",1–2 shoots shoots per explant
same,Number of shoots observed after three weeks,"Mentha arvensis; Medium A3 with IAA replaced: BAP 10.0, Compound 1 2.0, single root in one replication",3–4 shoots shoots per explant
same,shoots produced,Mentha arvensis; within three weeks in medium A3,3 to 4 shoots
same,Shoot Elongation,"Bacopa monnieri; 1.0 μg/ml in MS basal medium, 2.5 cm twig cuttings, 10 replicates, recorded day 2 to 14, control 1.0",1.6 cms
same,Browning Yellowing Death,"Bacopa monnieri; 1.0 μg/ml in MS basal medium, twig cuttings, day 2 to 14",Nil
same,Root Elongation,"Bacopa monnieri; 1.0 μg/ml in MS basal medium, twig cuttings, day 2 to 14, control 0.8",0.8 cms
same,Branching,"Bacopa monnieri; 1.0 μg/ml in MS basal medium, twig cuttings, day 2 to 14, control 2.0",2.0 nos
same,Number of Roots,"Bacopa monnieri; 1.0 μg/ml in MS basal medium, twig cuttings, day 2 to 14, control 2 + 2",2 + 2 nos
same,Number of Leaves,"Bacopa monnieri; 1.0 μg/ml in MS basal medium, twig cuttings, day 2 to 14, control 5.0",11.0 nos
same,enhances the shoot elongation,Bacopa monnieri; within 15 days,about 1.6 cm
